This is an account of results in US20060140863A1, “Production of a dye agent for colouring cells in the human or animal body” (Fluoron GMBH, priority 2002, published 2006).

Where two headings read alike, the source gives them in different places.

For data set [1] the following is noted: known from Solomon et al 1989 and Veckener et al 2002 (rabbit eyes); cited from earlier work.
For data set [2] the following is noted: Cahen 1964 and BLURHEX product information; cited from earlier work.
For the next data set, the system named is mouse cells L 929. The data set is described as follows: Cytotoxicity by protein content of treated cell cultures vs untreated controls (growth inhibition). The format is cell-based. To be noted: L 929 cells, differing levels of concentration, 68 to 72 hours in an incubator, protein content vs untreated control. An excerpt:
(§1) The vitality of the cells and a deduced cytotoxicity is quantitatively determined by determining the protein content of the treated cell cultures in comparison with untreated control cultures. The protein content is ascertained by a colorimetric procedure with a standard process.
(§2) It is found in this respect that cytotoxicity of a significant level corresponding to growth inhibition of more than 30% is not present.

A further data set relates to ARPE-19-cells. The data set is described as above. The class given is cell-based. To be noted: differing levels of concentration, 68 to 72 hours in an incubator, protein content vs untreated control.
Description: as §1, §2

Data set [3] is described as follows: Cytotoxicity, general statement. To be noted: biocompatible solution according to the invention, in comparison with trypan blue. The format is cell-based. An excerpt: Trypan blue is a cytotoxic substance, as is known for example from Solomon K D et al: Protective effect of the anterior lens capsule during extra capsular cataract extraction, OPHTHALMOLOGY, Vol 96, No 5, May 1989, 591-597, and Veckener M et al: Ocular toxicity study of trypan blue injected into the vitreous cavity of rabbit eyes, Graefe's Arch. Clin. Ex. Ophthalmol. (2002) 239:698-704. When using trypan blue therefore complete flushing out in particular of the region of the eye in which the trypan blue was used as a dye agent is required immediately after the cataract operation in order to prevent it from remaining in the body or in the eye for a prolonged period of time.

Take `Cc1cc(-c2ccc(/N=N/c3c(S(=O)(=O)O)cc4cc(S(=O)(=O)O)cc(N)c4c3O)c(C)c2)ccc1/N=N/c1c(S(=O)(=O)O)cc2cc(S(=O)(=O)O)cc(N)c2c1O` [Trypan blue, trypan blue]: the cytotoxicity entry in data set [1] is on record as “cytotoxic”. Also, the “teratogenic or mutagenic action” value in data set [2] is given as “teratogenic or mutagenic action”.
In the case of `CCN(CC)c1ccc(C(=C2C=CC(=[N+](CC)CC)C=C2)c2cc(O)c(S(=O)(=O)[O-])cc2S(=O)(=O)[O-])cc1.CCN(CC)c1ccc(C(=C2C=CC(=[N+](CC)CC)C=C2)c2cc(O)c(S(=O)(=O)[O-])cc2S(=O)(=O)[O-])cc1.[Ca+2]` [patent blue V], the “growth inhibition (cytotoxicity of a significant level = more than 30%)” value with mouse cells L 929 and in the data set with ARPE-19-cells was not above 30% each time. The cytotoxicity result in data set [3] is reported as “does not have any cytotoxicity”.
In the case of brilliant blue R, the cytotoxicity entry in data set [3] is given as “does not have any cytotoxicity”.
